# PMC4607267 (Molecular and biochemical parasitology, 2015)
# Molecular target: T1, SmGAR (Schistosoma mansoni, UniProt A0A3Q0KNW8)
# T1 sequence (A0A3Q0KNW8 5-938): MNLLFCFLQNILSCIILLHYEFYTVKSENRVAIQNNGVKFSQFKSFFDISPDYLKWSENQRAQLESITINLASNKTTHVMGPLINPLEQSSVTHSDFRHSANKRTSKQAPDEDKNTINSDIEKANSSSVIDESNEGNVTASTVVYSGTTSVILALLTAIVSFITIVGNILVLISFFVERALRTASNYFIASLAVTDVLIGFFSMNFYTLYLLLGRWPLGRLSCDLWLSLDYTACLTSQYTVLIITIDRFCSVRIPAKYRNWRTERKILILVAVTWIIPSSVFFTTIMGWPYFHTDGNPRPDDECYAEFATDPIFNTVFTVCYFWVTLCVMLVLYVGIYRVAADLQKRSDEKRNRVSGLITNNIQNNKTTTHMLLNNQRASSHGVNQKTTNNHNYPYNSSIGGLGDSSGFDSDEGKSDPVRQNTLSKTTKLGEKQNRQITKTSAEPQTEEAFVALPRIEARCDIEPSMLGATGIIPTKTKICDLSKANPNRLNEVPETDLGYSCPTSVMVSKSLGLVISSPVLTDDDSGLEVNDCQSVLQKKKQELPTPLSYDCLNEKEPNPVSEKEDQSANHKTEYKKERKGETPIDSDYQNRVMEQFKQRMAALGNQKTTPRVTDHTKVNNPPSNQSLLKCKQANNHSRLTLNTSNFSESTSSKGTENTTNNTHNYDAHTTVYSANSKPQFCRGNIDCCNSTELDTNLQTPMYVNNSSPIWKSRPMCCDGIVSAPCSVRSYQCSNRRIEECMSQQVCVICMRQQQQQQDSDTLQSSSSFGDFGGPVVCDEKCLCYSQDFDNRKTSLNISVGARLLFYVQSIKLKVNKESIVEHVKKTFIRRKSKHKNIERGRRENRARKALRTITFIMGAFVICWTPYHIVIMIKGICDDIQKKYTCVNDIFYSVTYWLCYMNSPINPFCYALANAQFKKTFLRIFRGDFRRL
# Test: yeast HIS3 reporter growth assay, Alamar Blue
# Assay type: cell-based
# Details: read-out: % inhibition at 1 mM
smiles,measurement,value
CN1CCN(CC(=O)N2c3ccccc3C(=O)Nc3cccnc32)CC1 [pirenzepine],inhibition at 1000 µM,< 50%
